# Assay results as given in paper PMC10342804, “Neuroprotective and Disease-Modifying Effects of the Triazinetrione ACD856, a Positive Allosteric Modulator of Trk-Receptors for the Treatment of Cognitive Dysfunction in Alzheimer’s Disease” (International Journal of Molecular Sciences, 2023).
# Experiments:
# [1] = set-up: method as in PMID 34440640; details: s.c., doses 0.3 mg/kg up to 3 mg/kg; cited from earlier work
# [2] = tested on: C57BL/6J mice; experiment: Forced swim test; format: in vivo, mouse; details: ACD856 1 mg/kg s.c. five days; ketamine single dose 10 mg/kg seven days prior to swimming session
# Protocol: Depression-like behavior was assessed in male C57BL/6J mice using a modified version of the FST, as described previously. This included a two-day protocol test, with pre-exposure to water 24 h prior to the test (day one of FST), which seems to be a more accurate and sensitive technique in detecting depression-like behavior in mice than the standard method of a single exposure (one day test). Animals were individually placed in a vertical glass cylinder (50 cm high, 20 cm in diameter, CMA) filled with tap water up to 35 cm (25 ± 0.5 °C). Two swimming sessions were conducted: a 10 min pre-test (day one) followed 24 h later (day two) by a 6 min test session. The total duration of immobility, as well as latency to the first immobility, were recorded during the 6 min test. After each swimming session, the mice were gently removed and placed in a home cage together with dry napkins. Immobility was defined as floating passively in an upright position in water with only small movements necessary to keep the head above the water’s surface. The floating time was considered an index of depression-like behavior. The glass cylinder was cleaned thoroughly between each animal.
# [3] = tested on: primary cortical neurons; experiment: Mitochondrial ToxGlo assay (ATP levels, cell membrane integrity), energy-deprived primary neurons; format: cell-based, mouse; details: for cell membrane integrity: glucose and pyruvate withdrawal; for ATP levels: neurotrophins, 6 h, no glucose or pyruvate
# Protocol: (§1) Metabolic activity was determined by measuring reduction in resazurin (a). […] Data shown are the means of all replicates +/− SEM from at least three different primary cultures. * p-value < 0.05, ** p-value < 0.01, *** p-value < 0.001, **** p-value < 0.0001 compared to control group at one-way ANOVA with Dunnett’s multiple comparisons test.
# Mitochondrial ToxGlo assay was used to evaluate the cell membrane integrity and the ATP levels of PCN cells. At DIV4–5, cells seeded at […] in 96-well plates were treated for six and three hours with increasing doses of neurotrophins and ACD856, respectively, in Neurobasal-A media containing 2% B27 and 2 mM glutamine. No glucose or pyruvate was present in the cell media to prevent non-mitochondrial ATP production from glycolysis. Then, bis-AAF-R110, a fluorogenic substrate that is exclusively cleaved by proteases released from membrane-compromised cells, was added, and the plate was incubated at 37 °C for 30 min. Fluorescence was measured at 485 nm (Ex)/530 nm (Em) using a SpectraMax iD5 plate reader. Next, the ATP detection reagent was added, and luminescence was measured after 5 min incubation to assess ATP levels in lysed cells.
# [4] = tested on: ERK1/2 and Trk-receptors phosphorylation; experiment: Western blot of pERK1/2 and phospho-Trk in cortical neurons stimulated with growth factors; format: cell-based, mouse; details: 10 ng/mL factor, 20 min
# Protocol: (§2) Figure 2 Increased activation of TrkB and downstream signaling through ERKK1/2 MAPK phosphorylation by BDNF and ACD856. Levels of phosphorylated TrkB receptors were determined by ELISA in SH-SY5Y cells overexpressing the human TrkB receptor (a). Effect of 0 (open bars), 10 (light grey bars), or 30 ng BDNF/mL (dark grey bars) and time course on BDNF-induced TrkB tyrosine phosphorylation are depicted as the mean of one experiment performed in quadruplicates +/− SEM * p < 0.05. SH-SY5Y-TrkB cells were incubated with 30 ng BDNF/mL for 10 min in the absence (DMSO) or presence of increasing concentrations of ACD856 (b). […] Data shown are the mean value +/− SEM from three independent experiments where each experiment was performed using at least 5 technical repeats. The effect of different neurotrophic factors on the phosphorylation of ERK1/2 and Trk-receptors was investigated (c). Cortical neurons were stimulated with 10 ng/mL of the indicated factors, and the levels of pERK1/2 (upper panel), phospho-Trk (tyrosine 674/675) (mid panel), and beta-actin as a loading control (lower panel) were analyzed by Western blot. Primary cortical neurons were incubated with 300 nM ACD856 for the indicated time periods in the absence of exogenous BDNF (d). The levels of phosphorylated ERK1/2 were determined by immunocytochemistry, and the total count per well of pERK1/2-positive neurites was determined. Fluorescence image at ×10 magnification showing phospho-ERK1/2 detected with immunocytochemistry in cortical neurons (e). * p < 0.05, ** p < 0.01 compared to control group at one-way ANOVA with Dunnett’s multiple comparisons test. Data shown are the mean value of all replicates +/− SEM from three different experiments.
# Phosphorylated ERK 1/2 (pERK1/2) levels were evaluated in mouse primary neurons between DIV10–15. Cells were seeded at (60 × 10^4 cells) in 6-well plates coated with poly-D-Lysine. The activation of the Trk signaling pathway was induced with 10 ng/mL ligand for 20 min. Cells were thereafter immediately lysed on ice, sonicated, and denatured at 95 °C for 10 min on a heating block. Proteins were separated on a Novex Bis-Tris 4–12% gel and transferred to a PVDF membrane using an iBlot instrument (Invitrogen). The membrane was blocked using 5% BSA in TBS-T followed by incubation with anti-phospho-p44/42 MAPK (ERK1/2) rabbit monoclonal antibody (Cell Signaling CS-4370) (dilution 1:1000) in TBS-T with 0.1% BSA for at least 60 min. […] After washing, a Western blot detection reagent (Forte, Millipore) was added, and immunoreactive proteins were detected by luminescence using C-DiGit Blot Scanner and quantified with Image Studio™ Software (version 5.2). […]
# [5] = tested on: primary cortical neurons; experiment: Resazurin assay, energy-deprived primary cortical neurons; format: cell-based, mouse; details: 10 ng/mL, no glucose or pyruvate, vs untreated cells
# Protocol: as §1
# Cells were seeded at […] in 96-well plates and treated at DIV4–5 in Neurobasal-A media with 2% B27 and 2 mM glutamine (no glucose or pyruvate was present). Two hours after treatment, a 10% volume of resazurin ready-to-use solution was added to the cell culture media, and the plates were returned to the incubator for a further four hours. Resazurin reduction is directly proportional to metabolic function and was evaluated fluorometrically at 540 nm excitation and 580 nm emission wavelengths using a SpectraMax iD5 plate reader. Results were presented as a percentage change compared to the control group.
# [6] = biological target: T1, human TrkB receptor (Homo sapiens, UniProt Q16620); experiment: Phospho-TrkB ELISA in SH-SY5Y cells overexpressing TrkB; format: cell-based; details: 10 or 30 ng BDNF/mL, time course
# T1 construct: host or cells: SH-SY5Y (human neuroblastoma) stably expressing TrkB
# Protocol: as §2, with “The effect of different neurotrophic factors on the phosphorylation of ERK1/2 and Trk-receptors was investigated (c).” left out, “Primary cortical neurons were incubated with 300 nM ACD856 for the indicated time periods in the absence of exogenous BDNF (d).” left out, “Data shown are the mean value of all replicates +/− SEM from three different experiments.” left out
Molecule,cell membrane integrity [3],ATP levels [3],phosphorylation of ERK1/2 [4],phosphorylation of Trk-receptors (pY674/675) [4],metabolic activity (reduction of resazurin) [5],further results
Cc1cc(-n2c(=O)[nH]c(=O)n(C)c2=O)ccc1Oc1ccc(S(=O)(=O)C(F)(F)F)cc1 [ACD855],–,–,–,–,–,pro-cognitive effects in cognition models [1]: potent pro-cognitive effects
"CNC1(c2ccccc2Cl)CCCCC1=O (stereo not shown) [Ketamine, ketamine]",–,–,–,–,–,prolonged effect on immobility time in forced swim test [2]: prolonged antidepressive-like effects
BDNF: recombinant human brain-derived neurotrophic factor (PeproTech 450-02),improved cell membrane integrity,able to increase ATP levels,the most effective growth factors with respect to inducing phosphorylation of ERK1/2,the only growth factors that induced phosphorylation of Trk-receptors,significantly higher fluorescence,–
NGF: recombinant human nerve growth factor (PeproTech 450-01),improved cell membrane integrity,able to increase ATP levels,–,–,significantly higher fluorescence,–
"NT3: neurotrophin-3, binds to TrkC (protein, UniProt P20783 139-257, looked up) Neurotrophin-3: YAEHKSHRGEYSVCDSESLWVTDKSSAIDIRGHQVTVLGEIKTGNSPVKQYFYETRCKEARPVKNGCRGIDDKHWNSQCKTSQTYVRALTSENNKLVGWRWIRIDTSCVCALSRKIGRT",–,–,the most effective growth factors with respect to inducing phosphorylation of ERK1/2,the only growth factors that induced phosphorylation of Trk-receptors,–,–
"BDNF: recombinant human brain-derived neurotrophic factor (PeproTech 450-02) (protein, UniProt P23560 19-247, looked up) Neurotrophic factor BDNF …: APMKEANIRGQGGLAYPGVRTHGTLESVNGPKAGSRGLTSLADTFEHVIEELLDEDQKVRPNEENNKDADLYTSRVMLSSQVPLEPPLLFLLEEYKNYLDAANMSMRVRRHSDPARRGELSVCDSISEWVTAADKKTAVDMSGGTVTVLEKVPVSKGQLKQYFYETKCNPMGYTKEGCRGIDKRHWNSQCRTTQSYVRALTMDSKKRIGWRFIRIDTSCVCTLTIKRGR",–,–,–,–,–,"BDNF-induced TrkB tyrosine phosphorylation [6]: in a dose- and time-dependent manner, increase TrkB phosphorylation"
